Data set [1] has as its system C57BL/6 mice. Put plainly: Warm water tail immersion. In kind it is in vivo, mouse.
The subject of data set [2] is C57BL/6 mice. The data set can be described thus: Chloroquine phosphate-induced scratching. As to conditions: NorBNI 10 mg/kg ip 24 hours prior; triazole 1.1 1 mg/kg sc. In kind it is in vivo, mouse.
Data set [3] has as its system male Fisher 344 rats. The data set can be described thus: Suppression of VTA ICSS by 1.8% lactic acid. The following applies: triazole 1.1 24 mg/kg. In kind it is in vivo, rat.
The subject of data set [4] is male Fisher 344 rats. The following applies: NorBNI 32 mg/kg 24 hours prior; U50,488H 6 mg/kg.
The target in another data set is human KOR (Homo sapiens, UniProt P41145). In kind it is biochemical.
Data set [5] addresses KOR (OPRK1) βarrestin2 recruitment (Homo sapiens, UniProt P41145). Put plainly: βarrestin2 enzyme fragment complementation assay. In kind it is cell-based.
Data set [6] relates to KOR. Put plainly: Bias analysis, G protein. As to conditions: reference U50,488H.
The target in a further data set is striatal KOR (Mus musculus, UniProt P33534). The class given is binding.
The target in another data set is KOR in mouse striatum (Mus musculus, UniProt P33534). The data set can be described thus: [35S]GTPγS binding in mouse striatal membranes. The class given is biochemical.
The subject of data set [7] is dopamine release in nucleus accumbens. The following applies: mouse brain slices.
Data set [8] has as its system dopamine concentration in nucleus accumbens. Put plainly: Microdialysis of nucleus accumbens dopamine in freely moving mice. In kind it is in vivo, mouse. As to conditions: triazole 1.1 15 mg/kg ip.
For a further data set, the system named is C57BL/6J male mice. The following applies: mouse, in vivo.
The subject of data set [9] is KOR. As to conditions: compared to reference agonist U69,593; cited from earlier work.
The conditions of data set [10]: after systemic dosing; cited from earlier work.
The subject of data set [11] is mice. As to conditions: mouse, in vivo; cited from earlier work.
In data set [12] the test system is KOR. The following applies: cited from earlier work.
The subject of data set [13] is mice. As to conditions: cited from earlier work.

Here are results for 3 compounds from article PMC5231411 (Science signaling, 2016).

The term EC50 denotes the concentration needed to bring the measured effect to its halfway point.

KOR in mouse striatum, sequence (P33534 whole entry): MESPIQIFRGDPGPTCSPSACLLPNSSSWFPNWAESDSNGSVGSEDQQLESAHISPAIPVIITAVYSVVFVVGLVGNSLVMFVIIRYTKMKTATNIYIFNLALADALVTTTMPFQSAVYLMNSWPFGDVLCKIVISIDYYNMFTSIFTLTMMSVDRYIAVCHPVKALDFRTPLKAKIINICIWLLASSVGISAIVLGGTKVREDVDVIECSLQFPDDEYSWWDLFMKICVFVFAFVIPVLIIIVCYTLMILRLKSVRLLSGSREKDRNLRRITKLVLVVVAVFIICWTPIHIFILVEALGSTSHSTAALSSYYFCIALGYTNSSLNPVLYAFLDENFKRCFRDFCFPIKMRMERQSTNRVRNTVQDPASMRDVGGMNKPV
striatal KOR, sequence (P33534 whole entry): as above
human KOR, sequence (P41145 whole entry, the tested form may be a part): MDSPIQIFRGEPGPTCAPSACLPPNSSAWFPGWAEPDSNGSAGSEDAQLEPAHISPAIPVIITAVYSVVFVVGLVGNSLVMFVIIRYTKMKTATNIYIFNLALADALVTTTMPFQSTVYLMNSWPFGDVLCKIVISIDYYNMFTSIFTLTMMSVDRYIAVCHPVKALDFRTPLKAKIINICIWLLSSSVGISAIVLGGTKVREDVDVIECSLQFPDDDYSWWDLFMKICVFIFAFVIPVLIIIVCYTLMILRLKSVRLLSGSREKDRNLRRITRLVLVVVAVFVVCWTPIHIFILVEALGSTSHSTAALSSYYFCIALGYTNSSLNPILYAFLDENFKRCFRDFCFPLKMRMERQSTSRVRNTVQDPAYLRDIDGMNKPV
KOR (OPRK1) βarrestin2 recruitment, sequence (P41145 whole entry, the tested form may be a part): as above

For the compound `Oc1ccc2c3c1O[C@H]1c4[nH]c5c(c4C[C@@]4(O)[C@@H](C2)N(CC2CC2)CC[C@]314)C[C@@]1(O)[C@H]2Cc3ccc(O)c4c3[C@@]1(CCN2CC1CC1)[C@H]5O4` [NorBNI, Norbinaltorphimine, reference compound], the “Antagonism of agonist-induced antinociception (tail flick)” value in the data set on C57BL/6 mice [1] (NorBNI 15 mg/kg ip, 10 min before U50,488H or triazole 1.1) is listed as “fully antagonized the antinociception produced by both compounds”. Further, the “Blockade of antipruritic effects of triazole 1.1” value with C57BL/6 mice [2] is “blocked the antipruritic effects of triazole 1.1”. The “Blockade of analgesic effect of triazole 1.1 on lactic acid-suppressed ICSS” value in the data set with male Fisher 344 rats [3] (NorBNI 32 mg/kg prior) is “completely blocked”. In addition, the “Blockade of U50,488H effects on ICSS” value in the data set on male Fisher 344 rats [4] is on record as “blocked”.
Take `Cc1ccc(CSc2nnc(-c3ccccn3)n2Cc2ccco2)cc1C(F)(F)F` [Triazole 1.1, 2-(4-(furan-2-ylmethyl)-5-((4-methyl-3-(trifluoromethyl)benzyl)thio)-4H-1,2,4-triazol-3-yl)pyridine]: on human KOR, the “[35S]GTPγS binding assay Emax” value is reported as 101 ± 5%. The “βarrestin2 enzyme fragment complementation assay Emax” value in data set [5] is reported as 98 ± 4%. The “Bias factor G/β (10^ΔΔLogR)” value with KOR [6] (G protein/βarrestin2) was 28. Also, in the data set on KOR [6] (with 95% CI), the “ΔΔLogR (ΔLogR of [35S]GTPγS − ΔLogR of βarrestin2 EFC)” value is 1.44 (1.29 to 1.60). Moreover, in the data set with C57BL/6 mice [1] (C57BL/6 mice, sc, 20 min after injection, 10-s cutoff), the “Response latency (%MPE) in warm water tail flick assay” value is given as “produced an increase in response latency in a dose-dependent manner”. Besides, the “Antinociceptive efficacy in KOR-KO mice (tail flick)” value in the data set on C57BL/6 mice [1] (KOR-KO mice, 30 mg/kg, ip) is listed as “Neither drug had efficacy in KOR-KO mice”. Also, at striatal KOR, the “Reduction of specific [3H]U69,593 binding in striatum compared to untreated mice” value is reported as 40%. This compound displayed an EC50 at KOR in mouse striatum of 497 ± 34 nM. For the same compound, in data set [7] (10-1000 nM), the “Effect on evoked dopamine release, nucleus accumbens core” value is reported as “no measureable decreases in the core” and the “Effect on evoked dopamine release, nucleus accumbens shell” value is listed as “a modest decrease in the shell only at the highest concentration tested”. Also, in data set [7] (10-1000 nM cumulative), the “EC50 for decrease in dopamine release, nucleus accumbens core” value is on record as “nonconvergence of curves” and the “EC50 for decrease in dopamine release, nucleus accumbens shell” value is listed as “nonconvergence of curves”. For the same compound, the “Effect on dopamine concentration in nucleus accumbens (microdialysis)” value in [8] is listed as “did not significantly affect dopamine concentrations”. In the data set on male Fisher 344 rats [3] ([…] lactic acid ip, ketoprofen 1 mg/kg sc, U50,488H 6 mg/kg), the “Effect on lactic acid-induced suppression of ICSS (EF50 and Rmax)” value is on record as “suppressed the effect of lactic acid compared to vehicle administration”. In the data set with C57BL/6J male mice, the “Locomotor activity (ambulation) in open field over 1 hour” value is on record as “did not affect locomotor activity at any of the doses tested”. Moreover, in the data set with KOR [9], the “Preference for G protein signaling over βarrestin2 recruitment” value is recorded as “displays a preference for G protein signaling over βarrestin2 recruitment”. Moreover, the “Brain penetration (tissue content in whole brain)” value in [10] is “brain-penetrant”.
Regarding RB-64, the “Antinociceptive efficacy and locomotor activity” value with mice [11] is “preserves antinociceptive efficacy without decreasing locomotor activity”. In addition, the “Bias for G protein signaling over βarrestin2 recruitment” value in the data set on KOR [12] is listed as “displays bias for G protein signaling over βarrestin2 recruitment”. Also, the “Conditioned place aversion (CPA)” value with mice [13] is reported as “produces conditioned place aversion (CPA) in mice”.
